In article PMC8456950, “Structure‐Guided Design of G‐Protein‐Coupled Receptor Polypharmacology” (Angewandte Chemie (International Ed. in English), 2021):

Columns and labels:
Human A2AAR = Human A2AAR (Homo sapiens, UniProt P29274); assay: A2AAR competition binding ([3H]-ZM241385 displacement); design: expressed in transfected cells; host or cells: HeLa-A2AAR cell line (membranes); conditions: for A2AAR % displacement at 10 μM: 10 μM compound, mean±SEM of three experiments; for Ki: radioligand displacement, mean±SEM of three experiments in duplicate, read-out: A2AAR binding affinity Ki
Method: Binding assays. Human A2AAR competition binding experiments were carried out in multiscreen GF/C 96-well plates (Millipore, Madrid, Spain) pretreated with binding buffer (50 mM Tris-HCl, 1 mM EDTA, 10 mM MgCl2, 2 U/ml adenosine deaminase, pH=7.4).
Each well contained 5 µg of membranes from a He l a-A2AAR cell line (protein concentration […]
compound studied. Non-specific binding was determined in the presence of 50 µM NE C A (Sigma E2387). The reaction mixture (200 µl/well) was incubated at 25 °C for 30 min, after which it was filtered and washed four times with 250 µl wash buffer (50 mM Tris -HCl, 1 mM EDTA, 10 mM MgCl 2, pH=7. 4) before measuring in a microplate beta scintillation counter (Microbeta Trilux, PerkinElmer, Madrid, Spain). Three independent experiments were carried out to calculate K i values (n=3). […]

Human D2R [1] = target: T1, Human D2R (Homo sapiens, UniProt P14416); assay: D2R competition binding ([3H]-spiperone displacement); conditions: for Ki: read-out: D2R binding affinity Ki; for D2R % displacement at 10 μM: 10 μM compound, mean±SEM of three experiments
T1 construct: expressed in transfected cells; host or cells: CHO-D2R #S20 cell line (membranes)
Method: Human D2R competition binding experiments w ere carried out in polypropylene 96-well plates. Each well contained 10 µg of membranes from a CHO-D2R #S20 cell line (protein concentration of 3241 µg/ml), 0.4 nM [3H]-spiperone (80. 2 Ci/mmol, 1 mCi/ml, Perkin […]
The reaction mixture (250 µl/well) was incubated at 25°C for 120 min , after which 200 µL was transferred to a GF/C 96 -well plate (Millipore, Madrid, Spain) pretreated with 0. 5% of PEI and treated with binding buffer (50 mM Tris-HCl, 1 mM EDTA, 5 mM MgCl2, 5 mM KCl, 120 mM NaCl, pH=7.4). The […]
samples were filtered and washed four times with 250 µl wash buffer (50 mM Tris-HCl, 0.9% NaCl, pH=7.4) before measuring in a microplate beta scintillation counter (Microbeta Trilux, PerkinElmer, Madrid, Spain). Three independent exp eriments were carried out to calculate Ki values (n=3). […]

Human D2R [2] = target: T1, Human D2R; assay: D2R functional cAMP (HTRF) assay in CHO-D2 #S20 cells; assay type: cell-based; conditions: for EC50: cAMP HTRF, CHO-D2 cells, forskolin 10 µM, mean±SEM n=3; for Emax: relative to the maximal effect of dopamine
Method: KB=I C50/(1+([NECA]/EC50 NECA)).
Functional assays for the human D2R were carried out in a CHO-D2 #S20 cell line. 5,000 cells were seed ed in 30 µl of Opti-ME M (Invitrogen 11058) and 500µM IBMX (Sigma 17018) on a 96-well isoplate (PerkinElmer 6005030). The studied compounds wer e then added and incubated for 10 min at 37 °C with gentle stirring (150 rpm). Then, 10 µM […]
forskolin (Sigma 17018) was added and incubated for 5 min at 37 °C with gentle stirring (150 rpm). Reagents (#CISBIO 62AM4PEC) were added and, after incubation for 60 min at rt with gentle stirring (90 rpm) and protected from light, homogeneous time resolved fluorescence (HTRF, λEx: 320 nm; λEm: 620-665 nm) from each well was measured using a Tecan Infinite M1000 Pro. Data were normalized to the maximum effect of dopamine. EC50 and Ema x values were obtained after fitting the d ata to a four -parameter logistic equatio n using Prism V2. 1 (Graph Pad Inc, Chicago, USA) . […]

Human A1AR = target: T2, Human A1AR (Homo sapiens, UniProt P30542); assay: A1AR competition binding ([3H]-DPCPX); conditions: 10 µM compound, n=2
T2 construct: expressed in transfected cells; host or cells: CHO-A1AR cell line (membranes)
T2 sequence (P30542 1-326): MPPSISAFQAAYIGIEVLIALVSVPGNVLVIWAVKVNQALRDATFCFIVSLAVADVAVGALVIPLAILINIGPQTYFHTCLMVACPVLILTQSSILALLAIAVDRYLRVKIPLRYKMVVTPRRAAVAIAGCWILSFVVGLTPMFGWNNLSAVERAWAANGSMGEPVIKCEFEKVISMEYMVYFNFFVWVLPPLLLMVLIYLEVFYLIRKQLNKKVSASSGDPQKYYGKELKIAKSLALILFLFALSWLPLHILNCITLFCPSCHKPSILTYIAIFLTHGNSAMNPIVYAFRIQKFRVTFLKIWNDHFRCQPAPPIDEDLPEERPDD
Method: Human A1AR competition binding experiments were carried out in multiscreen GF/C 96 -well plates (Millipore, Madrid, Spain) pretreated with assay buffer ( 20 mM Hepes, 100 mM NaCl, 10 mM MgCl2, 2 U/ml adeno sine deamina se, pH=7.4). Each well contained 5 µg of membranes from a CHO-A1AR cell line, 1 nM [3H]-DPCPX (137 Ci/mmol, 1 mCi/Ml, Perkin Elmer NET974001MC), and the compound studied. Non-specific binding was determined in the presence of R-PIA 10 µM (Sigma P4532). The reaction mixture (200 µl/well) was incubated at 25°C for 60 min. The samples were then filtered and washed four times with 250 µl wash buffer (20 mM Hepes, 100 mM NaCl, 10 mM MgCl2, pH=7.4) before measuring in a microplate beta scintillati on counter (Microbeta Trilux, PerkinElmer, Madrid, Spain). Two independent experiments were carried out to calculate K i values (n=2). […]

[3] = radioligand displacement, mean±SEM of three experiments in duplicate

Sequence of Human A2AAR (P29274 whole entry): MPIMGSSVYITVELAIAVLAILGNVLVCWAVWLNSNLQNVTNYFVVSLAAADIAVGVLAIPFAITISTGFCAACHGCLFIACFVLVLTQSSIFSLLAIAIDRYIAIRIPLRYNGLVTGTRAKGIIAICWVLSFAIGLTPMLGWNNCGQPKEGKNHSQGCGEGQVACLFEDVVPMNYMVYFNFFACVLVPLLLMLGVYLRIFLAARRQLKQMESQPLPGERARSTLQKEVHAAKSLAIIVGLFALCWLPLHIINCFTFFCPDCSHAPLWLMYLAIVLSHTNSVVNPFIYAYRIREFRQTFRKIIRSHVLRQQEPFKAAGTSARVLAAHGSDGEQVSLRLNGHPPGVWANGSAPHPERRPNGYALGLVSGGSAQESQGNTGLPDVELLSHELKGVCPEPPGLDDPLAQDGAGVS
T1 sequence (P14416 whole entry): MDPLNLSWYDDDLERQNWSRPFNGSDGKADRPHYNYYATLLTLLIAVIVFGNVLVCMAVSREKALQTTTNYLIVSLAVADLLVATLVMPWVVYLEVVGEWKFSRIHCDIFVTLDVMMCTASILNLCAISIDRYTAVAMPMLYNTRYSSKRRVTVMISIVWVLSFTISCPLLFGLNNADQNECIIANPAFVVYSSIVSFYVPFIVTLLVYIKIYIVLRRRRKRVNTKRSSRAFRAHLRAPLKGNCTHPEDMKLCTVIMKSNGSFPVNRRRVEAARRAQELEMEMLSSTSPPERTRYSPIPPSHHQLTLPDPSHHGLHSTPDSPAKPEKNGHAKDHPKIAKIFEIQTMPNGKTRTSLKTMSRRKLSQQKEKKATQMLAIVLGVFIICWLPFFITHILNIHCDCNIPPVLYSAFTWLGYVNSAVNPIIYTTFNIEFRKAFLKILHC

Compound	A2AAR % displacement at 10 μM (Human A2AAR)	Ki (Human D2R [1]; [3]) [µM]	Ki (Human A2AAR) [µM]	EC50 (Human D2R [2]) [µM]	Emax (Human D2R [2]) [%]	D2R % displacement at 10 μM (Human D2R [1])	D2R binding affinity Ki (Human D2R [1]; [3])	activity for the A2AAR (in words) (Human A2AAR; binding assay)	A1AR % displacement at 10 µM (Human A1AR) [%]
Cc1cc(C)n2nc(NCCCCN(C)C3Cc4ccccc4C3)nc2n1 [Compound 11]	4 ± 4%	0.43 ± 0.05	–	–	–	–	–	–	–
CCCN(CCCCC(=O)Nc1nc2c(F)cccc2s1)C1Cc2ccccc2C1 [Compound 23]	–	0.2 ± 0.02	2.9 ± 0.6	–	–	–	–	–	–
CN(CCCC(=O)Nc1nc2c(Br)cccc2s1)C1Cc2ccccc2C1 [Compound 32]	–	0.88 ± 0.11	0.67 ± 0.11	1.2 ± 0.3	51 ± 4	–	–	–	–
Cc1cccc2sc(NC(=O)CCCN(C)C3Cc4ccccc4C3)nc12 [Compound 31]	–	0.63 ± 0.05	1.6 ± 0.3	5.2 ± 2.6	88 ± 13	–	–	–	–
CN(CCCCNc1ncc2ccn(C)c2n1)C1Cc2ccccc2C1 [Compound 10]	8 ± 3%	–	–	–	–	–	–	–	–
CN(CCCCNc1ncc(-c2ccccc2)o1)C1Cc2ccccc2C1 [Compound 9]	9 ± 6%	0.29 ± 0.03	–	–	–	–	–	–	–
CCN(CCC(=O)Nc1nc2c(OC)ccc(OC)c2s1)C1Cc2ccccc2C1 [Compound 40]	–	1.9 ± 0.3	0.72 ± 0.07	8.9 ± 2.7	105 ± 5	–	–	–	–
CCN(CCCCC(=O)Nc1nc2c(OC)cccc2s1)C1Cc2ccccc2C1 [Compound 21]	–	0.33 ± 0.02	0.63 ± 0.08	–	–	–	–	–	–
CCCN(CCCCC(=O)Nc1nc2c(OC)ccc(Cl)c2s1)C1Cc2ccccc2C1 [Compound 28]	–	0.9 ± 0.1	0.47 ± 0.11	1.2 ± 0.2	104 ± 6	–	–	–	–
Cc1cccc2sc(NC(=O)CCCCN(C)C3Cc4ccccc4C3)nc12 [Compound 2]	significant radioligand displacement	0.9 ± 0.08	1.2 ± 0.1	9.7 ± 3.8	93 ± 12	significant radioligand displacement	submicromolar	–	–
CCCCCC(=O)Nc1nc2c(C)cccc2s1 [Compound 12]	–	–	8.1 ± 3.8	–	–	1±2%	–	–	–
CCCN(CCCCC(=O)Nc1nc2c(C)cccc2s1)C1Cc2ccccc2C1 [Compound 25]	–	0.34	0.99 ± 0.24	0.75 ± 0.07	81 ± 5	–	–	–	–
CCN(CCC(=O)Nc1nc2c(OC)ccc(C)c2s1)C1Cc2ccccc2C1 [Compound 39]	–	2 ± 0.3	1.3 ± 0.2	28 ± 9	107 ± 6	–	–	–	–
CNC(=O)CCCCN(C)C1Cc2ccccc2C1 [Compound 13]	5±2%	5 ± 1.3	–	–	–	–	–	no activity	–
CCCN(CCCCC(=O)Nc1nc2c(CC)cccc2s1)C1Cc2ccccc2C1 [Compound 24]	–	0.82 ± 0.18	11 ± 3	–	–	–	–	–	–
CCOc1cc(C)nc(NCCCCN(C)C2Cc3ccccc3C2)n1 [Compound 4]	significant radioligand displacement	0.33 ± 0.03	8.4 ± 1.3	–	–	significant radioligand displacement	–	–	–
CN(CCCCC(=O)Nc1nc2ncccc2[nH]1)C1Cc2ccccc2C1 [Compound 8]	5 ± 1%	0.08 ± 0.01	–	–	–	–	–	–	–
Cc1nc(NC(=O)CCCCN(C)C2Cc3ccccc3C2)sc1C [Compound 5]	3 ± 2%	0.68 ± 0.05	–	–	–	–	–	–	–
COc1cccc2sc(NC(=O)CCCCN(C)C3Cc4ccccc4C3)nc12 [Compound 18]	–	0.39 ± 0.03	0.37 ± 0.05	26 ± 14	89 ± 18	–	–	–	18 ± 3
Cc1ccc(NC(=O)CCCCN(C)C2Cc3ccccc3C2)nc1 [Compound 6]	7 ± 4%	0.67 ± 0.06	–	–	–	–	–	–	–
CN(CCCCC(=O)Nc1nc2c(Cl)cccc2s1)C1Cc2ccccc2C1 [Compound 19]	–	0.51 ± 0.05	0.42 ± 0.04	23 ± 9	82 ± 22	–	–	–	–
COc1ccc(OC)c2sc(NC(=O)CCN(C)C3Cc4ccccc4C3)nc12 [Compound 37]	–	1.3 ± 0.2	0.3 ± 0.05	31 ± 12	103 ± 3	–	–	–	–
CN(CCC(=O)Nc1nc2c(Br)cccc2s1)C1Cc2ccccc2C1 [Compound 33]	–	2.2 ± 0.3	1.1 ± 0.2	5 ± 2.8	81 ± 6	–	–	–	–
CN(C)c1ncnc(NC(=O)CCCCN(C)C2Cc3ccccc3C2)n1 [Compound 7]	4 ± 3%	–	–	–	–	–	–	–	–
CN(CCCCNc1nc(-c2ccccc2)nc2[nH]ccc12)C1Cc2ccccc2C1 [Compound 3]	significant radioligand displacement	0.29 ± 0.03	5.6 ± 0.9	–	–	significant radioligand displacement	–	–	–
